Experimental data taken from patent US7323314B2, “Members of the capsaicin/vanilloid receptor family of proteins and uses thereof” (Bayer HealthCare AG, priority 1998, dated 2008).

What was measured:
Human VR2 [1] = target: T1, Human VR2 (Homo sapiens, UniProt Q9Y5S1); assay: Whole-cell patch-clamp of VR2 transiently expressed in HEK293 cells; format: cell-based
T1 construct: expressed in transfected cells; host or cells: Xenopus oocytes injected with cRNA
T1 sequence (Q9Y5S1 1-764): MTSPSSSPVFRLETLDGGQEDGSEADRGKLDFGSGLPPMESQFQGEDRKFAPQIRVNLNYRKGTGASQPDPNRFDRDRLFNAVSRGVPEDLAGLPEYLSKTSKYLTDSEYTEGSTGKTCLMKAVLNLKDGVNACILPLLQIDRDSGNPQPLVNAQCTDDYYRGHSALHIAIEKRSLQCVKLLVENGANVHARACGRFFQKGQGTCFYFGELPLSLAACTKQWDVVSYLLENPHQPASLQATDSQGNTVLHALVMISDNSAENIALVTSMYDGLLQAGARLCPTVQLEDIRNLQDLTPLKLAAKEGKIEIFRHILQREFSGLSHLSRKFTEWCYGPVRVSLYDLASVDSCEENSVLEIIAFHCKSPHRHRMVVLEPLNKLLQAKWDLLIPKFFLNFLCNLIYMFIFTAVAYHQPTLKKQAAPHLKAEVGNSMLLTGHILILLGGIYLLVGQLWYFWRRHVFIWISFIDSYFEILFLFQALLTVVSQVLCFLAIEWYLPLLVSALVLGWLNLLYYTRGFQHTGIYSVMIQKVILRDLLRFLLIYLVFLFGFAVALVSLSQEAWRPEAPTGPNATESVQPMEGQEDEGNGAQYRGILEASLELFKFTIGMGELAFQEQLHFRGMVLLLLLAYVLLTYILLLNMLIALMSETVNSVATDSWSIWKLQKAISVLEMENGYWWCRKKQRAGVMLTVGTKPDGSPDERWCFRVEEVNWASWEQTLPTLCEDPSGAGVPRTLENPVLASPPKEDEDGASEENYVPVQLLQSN
Experimental: Human VR2 was functionally characterized in both HEK293 cells and Xenopus oocytes using electrophysiological methods. VR2 (in the pcDNA3.1 vector purchased by Invitrogen) was transiently expressed in HEK293 cells (ATCC) and recordings were performed 48 hours after transfection of cells using the whole-cell patch-clamp method (described in Bertil Hille, Ionin Channels of excitable membranes, 1992; Hammill et al. (1981) Pluger Arch. 391:85-100).

Human VR2 [2] = target: T1, Human VR2; assay: Two-electrode voltage-clamp of VR2 in Xenopus oocytes; format: cell-based; details: heat stimulation (48-50° C.), 1-10 μM concentration
Experimental: For the oocyte studies, human VR2 was subcloned into an oocyte expression vector containing 5′- and 3′-UTR of Xenopus β-globin (Chiara et al. (1999) Biochemistry 38(20)6689-6698). In vitro trasncription was carried out as described in Chiara et al. (supra) and cRNA (10-100 ng) was then injected into the oocytes. VR2 function was characterized in the oocytes 48 hours after cRNA injection using a standard two-electrode voltage-clamp.

Human VR2 [3] = target: T1, Human VR2; assay: Binding of [3H]-resiniferatoxin to membranes isolated from HEK293 cell homogenates (VR2); details: 0.1-10 nM concentration
human VR1 = target: T2, human VR1 (Homo sapiens, UniProt Q8NER1, A11T/S41P/T469I); assay: Binding of [3H]-resiniferatoxin to membranes isolated from HEK293 cell homogenates (VR1); details: 0.1-10 nM concentration
T2 construct: expressed in transfected cells; host or cells: HEK293 cells (membranes)
T2 sequence (Q8NER1 whole entry A11T/S41P/T469I): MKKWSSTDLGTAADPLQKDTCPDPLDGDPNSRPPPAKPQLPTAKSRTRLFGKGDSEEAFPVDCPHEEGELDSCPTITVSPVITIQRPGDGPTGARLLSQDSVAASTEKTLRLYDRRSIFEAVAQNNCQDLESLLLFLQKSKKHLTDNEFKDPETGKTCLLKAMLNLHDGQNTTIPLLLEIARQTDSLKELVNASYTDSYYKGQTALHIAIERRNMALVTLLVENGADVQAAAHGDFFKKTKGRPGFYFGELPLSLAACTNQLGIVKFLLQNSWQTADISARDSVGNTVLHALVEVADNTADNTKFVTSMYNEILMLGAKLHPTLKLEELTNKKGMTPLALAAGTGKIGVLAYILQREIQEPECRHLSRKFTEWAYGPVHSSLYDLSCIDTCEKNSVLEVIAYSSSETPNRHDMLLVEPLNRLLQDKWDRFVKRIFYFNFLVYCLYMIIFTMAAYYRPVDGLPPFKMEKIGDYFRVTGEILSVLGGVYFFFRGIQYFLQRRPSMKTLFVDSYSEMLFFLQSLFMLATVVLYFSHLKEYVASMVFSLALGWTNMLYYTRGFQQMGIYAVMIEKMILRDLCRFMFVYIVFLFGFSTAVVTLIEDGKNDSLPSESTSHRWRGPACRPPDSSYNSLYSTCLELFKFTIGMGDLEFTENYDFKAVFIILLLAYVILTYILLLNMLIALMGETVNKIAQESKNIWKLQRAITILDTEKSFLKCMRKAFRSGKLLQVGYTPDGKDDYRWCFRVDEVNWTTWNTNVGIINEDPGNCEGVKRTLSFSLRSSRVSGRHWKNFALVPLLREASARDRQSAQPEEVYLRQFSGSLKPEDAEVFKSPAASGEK

## COc1cc(CNC(=O)CCCC/C=C/C(C)C)ccc1O [Capsaicin, capsaicin]
Human VR2 [1]; 1-10 μM concentration
  induction of currents from VR2: do not induce any currents

## Oc1cc2c(cc1O)CN(C(=S)NCCc1ccc(Cl)cc1)CCC2 [capsazepin, capsazepine]
Human VR2 [2]
  block of the heat response of VR2: blocks the heat response of VR2 reversibly
Human VR2 [1]; heat stimulation (>50° C.), 10 μM concentration
  block of heat-evoked currents of VR2: reversibly blocked

## C=C(C)[C@]12C[C@@H](C)[C@@]34O[C@](Cc5ccccc5)(O[C@@H]1[C@@H]3C=C(COC(=O)Cc1ccc(O)c(OC)c1)C[C@]1(O)C(=O)C(C)=C[C@@H]41)O2 [resiniferatoxin]
Human VR2 [3]
  specific binding to VR2: no specific binding
Human VR1
  binding to human VR1: high affinities
Human VR2 [1]; 0.1-3 μM concentration
  induction of currents from VR2: do not induce any currents
